Data on four compounds can be found in patent US11214547B2, “Crystalline Eltrombopag monoethanolamine salt form D” (F.I.S.—FABBRICA ITALIANA SINTETICI S.P.A., priority 2018, dated 2022).

For series [1] the following is noted: cited from earlier work.
A short description of series [2]: Preliminary stability in water at RT (slurry, XRPD). It counts as physicochemical. The note with it: XRPD at 1, 3, 6 and 24 h. The method, then: A preliminary test stability study in water at RT of 4 ETP monoethanolamine salt Forms was performed in order to observed possible crystalline transitions. A sample of each crystalline form was slurried in water at RT and periodically analysed by XRPD (1, 3, 6 and 24 h) in order to detect possible crystalline transformation.

Series [3] in a line: Relative thermodynamic solubility in water at RT by HPLC. It is filed as physicochemical. The following applies: for Intensity test average: average of solubility tests #1 and #2, water; for Intensity test average / Solubility test #1 (area counts) / Solubility test #2 (area counts): RT; for Solubility test #1 (area counts) / Solubility test #2 (area counts): water, 24 h stirring, HPLC ETP peak area of saturated solution. The protocol:
This suspension was stirred 24 h at RT in order to reach the equilibrium. Then, a sample was filtered and the resulting filtrate was analysed by HPLC by duplicate. The average peak area of ETP gave a relative value of the thermodynamic solubility of each form that can be compared with each other. The solids recovered after filtration were also analysed by XRPD to check that no crystalline phase transformation occurred during the slurring.
The following HPLC conditions were used to determine the relative solubility (due to their short analysis time and good response): • Column: C18 Zorbax Eclipse (XDB), 150×4.6 mm, 5 μm • Sample concentration: Saturated water solution of the ETP monoethanolamine salt • Mobile phase: ACN:MeOH:H2O (55:35:10) at pH=6.0+/−0.2 • Temperature: 27° C. • Flow rate: 1 mL/min • UV detector wavelength: 230 nm • Injection: 5 μL • Run time: 10 min
HPLC ETP peak area in each of the different forms analysed was measured in order to establish their relative solubility. The HPLC analyses were performed by duplicate for each ETP monoethanolamine salt.

Series [4] in a line: Crystalline stability of Form D under accelerated ICH guideline conditions (XRPD). It counts as physicochemical. The text has this:
[…] […] This sample was periodically analysed by XRPD in order to observe possible crystalline transformation or amorphization. Moreover, a sample of ETP monoethanolamine salt Form D stored on a XRPD silicon holder was exposed in a climatic chamber. It is worth noting that these stability conditions are harsher than standard stability conditions due to the high surface of exposition of the solid stored on the XRPD silicon holder. The samples were periodically analysed by XRPD to observe possible crystalline transformation.

Series [5] in a line: Hygroscopicity study by DVS (Dynamic Vapour Sorption). It counts as physicochemical. The following applies: 25° C. The method, then:
Hygroscopicity study was determined by DVS (Dynamic Vapour Sorption) with a Q5000 TA instrument. This is a gravimetric technique that measures how much water is absorbed or desorbed by a sample at different relative humidity (RH). At each RH, the sample mass must be allowed to reach gravimetric equilibrium (or surpassed time limit) before progressing to the next humidity level. Sorption and desorption isotherms were performed at 25° C. over a range of 0-95% RH. The samples gently milled were not previously dried but they were exposed to 0% RH until a stable weight was reached before starting the DVS cycle. This equilibration step allows possible adsorbed humidity to be eliminated.

For the compound `CC1=NN(c2ccc(C)c(C)c2)C(=O)/C1=N\Nc1cccc(-c2cccc(C(=O)O)c2)c1O` [Eltrombopag olamine], the “thermally stable up to” value in series [1] (at higher temperature endothermic reaction associated with degradation) was “about 125 °C”. For the same compound, the solubility in water result in series [1] is “sparingly soluble in water”.
For the compound `CC1=NN(c2ccc(C)c(C)c2)C(=O)/C1=N\Nc1cccc(-c2cccc(C(=O)O)c2)c1O` [Form D1], the “crystalline stability slurried in water” value in series [2] is listed as “remained stable 24 h”. In series [3], the Intensity test average turned out to be 2911, the “Solubility test #1 (area counts)” value was 2722 area counts and the “Solubility test #2 (area counts)” value stood at 3100 area counts.
Turning to `CC1=NN(c2ccc(C)c(C)c2)C(=O)/C1=N\Nc1cccc(-c2cccc(C(=O)O)c2)c1O` [Form D], the “crystalline stability slurried in water” value in series [2] is “remained stable 24 h”. Also, the “crystalline transformation by XRPD” value in series [4] (14 weeks study period) is given as “polymorphic transition, hydrate formation or amorphization was not observed”. For the same compound, the “time the crystalline form remains stable” value in series [4] (climate chamber-75±5% RH, on XRPD sample holder) is on record as “at least 14 weeks”. In series [3], the Intensity test average was 8066, the “Solubility test #1 (area counts)” value came to 7930 area counts and the “Solubility test #2 (area counts)” value was determined as 8201 area counts. In series [3] (water at RT, ranking among the 4 forms), the “relative solubility in water” value was “most soluble form in water at RT”. Also, the hygroscopicity result in series [5] (0-95% RH) is “not hygroscopic up to 85% RH”.
Turning to `CC1=NN(c2ccc(C)c(C)c2)C(=O)/C1=N\Nc1cccc(-c2cccc(C(=O)O)c2)c1O.NCCO` [Form H2], the “crystalline stability slurried in water” value in series [2] is “remained stable 24 h”. In series [3], the Intensity test average was found to be 2867, the “Solubility test #1 (area counts)” value is reported as 3068 area counts and the “Solubility test #2 (area counts)” value is given as 2665 area counts. The humidity adsorbed (water uptake) in series [5] (at 95% RH) came out at 0.6%.
